Data as given in US8071768B2, “Alkylquinoline and alkylquinazoline kinase modulators” (Janssen Pharmaceutica, N.V., priority 2005, dated 2011).

Target: T1, TrkB (Homo sapiens, UniProt Q16620)
T1 construct: purchased Upstate 14-507M
Test: Trk B Fluorescence Polarization Kinase Assay
Assay type: biochemical
Conditions: uncertainty ±10%
How it was run: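 The TrkB kinase reaction (50 nM enzyme, 20 ug/mL poly Glu4Tyr, 150 uM ATP, 5 mM MgCl2, 1% DMSO) ran 30 minutes at room temperature and was stopped with EDTA. Phosphorylation was detected by fluorescence-polarization displacement of a fluorescein phosphopeptide from an anti-phosphotyrosine antibody. IC50 came from a variable-slope sigmoidal fit of triplicates.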

T1 sequence (Q16620 32-822): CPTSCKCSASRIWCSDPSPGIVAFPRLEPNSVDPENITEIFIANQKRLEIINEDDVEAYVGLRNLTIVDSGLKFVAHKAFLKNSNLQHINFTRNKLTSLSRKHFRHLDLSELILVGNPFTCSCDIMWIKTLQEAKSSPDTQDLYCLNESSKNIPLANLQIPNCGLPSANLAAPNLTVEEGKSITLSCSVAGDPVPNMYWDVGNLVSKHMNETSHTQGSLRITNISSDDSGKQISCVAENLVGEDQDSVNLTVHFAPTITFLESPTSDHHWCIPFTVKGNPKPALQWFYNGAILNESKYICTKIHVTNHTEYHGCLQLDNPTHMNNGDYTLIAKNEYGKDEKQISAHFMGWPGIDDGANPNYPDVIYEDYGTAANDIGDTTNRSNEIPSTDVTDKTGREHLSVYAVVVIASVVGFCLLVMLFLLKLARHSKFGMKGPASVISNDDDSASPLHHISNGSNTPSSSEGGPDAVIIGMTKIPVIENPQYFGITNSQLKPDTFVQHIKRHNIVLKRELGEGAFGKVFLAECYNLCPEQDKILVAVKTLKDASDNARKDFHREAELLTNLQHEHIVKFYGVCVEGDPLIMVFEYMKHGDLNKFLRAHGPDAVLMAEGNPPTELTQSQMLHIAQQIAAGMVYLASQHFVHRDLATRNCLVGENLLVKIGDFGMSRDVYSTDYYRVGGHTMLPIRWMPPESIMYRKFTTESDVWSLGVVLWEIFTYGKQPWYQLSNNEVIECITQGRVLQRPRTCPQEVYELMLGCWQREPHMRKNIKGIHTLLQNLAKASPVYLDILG

IC50	Structure (SMILES)
0.4 µM	CN1CCN(CCCOc2ccc3c(C4CCN(C(=O)Nc5ccc(OC6CCCC6)nc5)CC4)ncnc3c2)CC1 [Compound 82, 4-{7-[3-(4-Methyl-piperazin-1-yl)-propoxy]-quinazolin-4-yl}-piperidine-1-carboxylic acid (6-cyclopentyloxy-pyridin-3-yl)-amide]
18.4 µM	COCCCOc1ccc2c(C3CCN(C(=O)Nc4ccc(N5CCOCC5)cc4)CC3)ncnc2c1 [Compound 78, 4-[7-(3-Methoxy-propoxy)-quinazolin-4-yl]-piperidine-1-carboxylic acid (4-morpholin-4-yl-phenyl)-amide]
0.2 µM	CC(C)Oc1ccc(NC(=O)N2CCC(c3ncnc4ccc(I)cc34)CC2)cc1 [Compound 11, 4-(6-Iodo-quinazolin-4-yl)-piperidine-1-carboxylic acid (4-isopropoxy-phenyl)-amide]
5 µM	CN1CCN(CCCOc2ccc3c(C4CCN(C(=O)Nc5ccc(N6CCCC6)cc5)CC4)ncnc3c2)CC1 [Compound 158, 4-{7-[3-(4-Methyl-piperazin-1-yl)-propoxy]-quinazolin-4-yl}-piperidine-1-carboxylic acid (4-pyrrolidin-1-yl-phenyl)-amide]
18.9 µM	CS(=O)(=O)OCCCOc1ccc2c(C3CCN(C(=O)Nc4ccc(N5CCOCC5)cc4)CC3)ncnc2c1 [Compound 122, Methanesulfonic acid 3-{4-[1-(4-morpholin-4-yl-phenylcarbamoyl)-piperidin-4-yl]-quinazolin-7-yloxy}-propyl ester]
0.7 µM	CC(C)Oc1ccc(NC(=O)N2CCC(c3ncnc4cc(OCCN5CCOCC5)ccc34)CC2)cc1 [Compound 37]
> 21 µM	CC(=O)N1CCC[C@H]1COc1ccc2c(C3CCN(C(=O)Nc4ccc(N5CCCC5)cc4)CC3)ncnc2c1 [Compound 162, (S)-4-[7-(1-Acetyl-pyrrolidin-2-ylmethoxy)-quinazolin-4-yl]-piperidine-1-carboxylic acid (4-pyrrolidin-1-yl-phenyl)-amide]
0.3 µM	CC(C)Oc1ccc(NC(=O)N2CCC(c3ncnc4ccc(C#CCN5CCCCC5)cc34)CC2)cc1 [Compound 14, 4-[6-(3-Piperidin-1-yl-prop-1-ynyl)-quinazolin-4-yl]-piperidine-1-carboxylic acid (4-isopropoxy-phenyl)-amide]
0.9 µM	CC(C)Oc1ccc(NC(=O)N2CCC(c3ncnc4cc(OCCCN5CCCCC5)ccc34)CC2)cc1 [Compound 33, 4-(7-(3-Piperidin-1-yl-propoxy)-quinazolin-4-yl)-piperidine-1-carboxylic acid (4-isopropoxy-phenyl)-amide]
16.7 µM	CN(C)C(=O)N1CCN(CCCOc2ccc3c(C4CCN(C(=O)Nc5ccc(N6CCOCC6)cc5)CC4)ncnc3c2)CC1 [Compound 120, 4-(3-{4-[1-(4-Morpholin-4-yl-phenylcarbamoyl)-piperidin-4-yl]-quinazolin-7-yloxy}-propyl)-piperazine-1-carboxylic acid dimethylamide]
0.3 µM	O=C1CCCN1CCCOc1ccc2c(C3CCN(C(=O)Nc4cnc(N5CCCC5)nc4)CC3)ncnc2c1 [Compound 90, 4-{7-[3-(2-Oxo-pyrrolidin-1-yl)-propoxy]-quinazolin-4-yl}-piperidine-1-carboxylic acid (2-pyrrolidin-1-yl-pyrimidin-5-yl)-amide]
2.8 µM	CC(C)Oc1ccc(NC(=O)N2CCC(c3ncnc4cc(OCCN5CCCCC5)ccc34)CC2)cc1 [Compound 34, 4-(7-(2-Piperindin-1-yl-ethoxy)-quinazolin-4-yl)-piperidine-1-carboxylic acid (4-isopropoxy-phenyl)-amide]
15 µM	O=C(Nc1ccc(N2CCOCC2)nc1)N1CCC(c2ncnc3cc(OCCCn4cnnc4)ccc23)CC1 [Compound 110, 4-[7-(3-[1,2,4]Triazol-4-yl-propoxy)-quinazolin-4-yl]-piperidine-1-carboxylic acid (6-morpholin-4-yl-pyridin-3-yl)-amide]
0.2 µM	CC(C)Oc1ccc(NC(=O)N2CCC(c3ncnc4cc(N5CCN(C)CC5)ccc34)CC2)cc1 [Compound 103, 4-[7-(4-Methyl-piperazin-1-yl)-quinazolin-4-yl]-piperidine-1-carboxylic acid (4-isopropoxy-phenyl)-amide]
2.4 µM	CC(C)Oc1ccc(NC(=O)N2CCC(c3ncnc4ccccc34)CC2)cc1 [Compound 8, 4-Quinazolin-4-yl-piperidine-1-carboxylic acid (4-isopropoxy-phenyl)-amide]
0.1 µM	CC(C)Oc1ccc(NC(=O)N2CCC(c3ncnc4cc(N(C)C)ccc34)CC2)cc1 [Compound 100, 4-(7-Dimethylamino-quinazolin-4-yl)-piperidine-1-carboxylic acid (4-isopropoxy-phenyl)-amide]
7.86 µM	CN1CCN(c2ccc3c(C4CCN(C(=O)Nc5ccc(N6CCCC6)cc5)CC4)ncnc3c2)CC1 [Compound 159, 4-[7-(4-Methyl-piperazin-1-yl)-quinazolin-4-yl]-piperidine-1-carboxylic acid (4-pyrrolidin-1-yl-phenyl)-amide]

The next lines start with the compound.

Structure (SMILES)	IC50
CN1CCN(c2ccc3c(C4CCN(C(=O)Nc5ccc(N6CCCC6)nc5)CC4)ncnc3c2)CC1 [Compound 160, 4-[7-(4-Methyl-piperazin-1-yl)-quinazolin-4-yl]-piperidine-1-carboxylic acid (6-pyrrolidin-1-yl-pyridin-3-yl)-amide]	6.45 µM
COc1cc2ncnc(C3CCN(C(=O)Nc4ccc(OC5CCCC5)nc4)CC3)c2cc1OC [Compound 69, 4-(6,7-Dimethoxy-quinazolin-4-yl)-piperidine-1-carboxylic acid (6-cyclopentyloxy-pyridin-3-yl)-amide]	0.15 µM
COc1cc2ncnc(C3CCN(CC(=O)Nc4ccc(C(C)C)cc4)CC3)c2cc1OC [Compound 9, 2-[4-(6,7-Dimethoxy-quinazolin-4-yl)-piperidin-1-yl]-N-(4-isopropyl-phenyl)-acetamide]	0.5 µM
CS(=O)(=O)CCNc1ccc2c(C3CCN(C(=O)Nc4ccc(N5CCOCC5)cc4)CC3)ncnc2c1 [Compound 146, 4-[7-(2-Methanesulfonyl-ethylamino)-quinazolin-4-yl]-piperidine-1-carboxylic acid (4-morpholin-4-yl-phenyl)-amide]	> 42 µM
O=C1CCCN1CCOc1ccc2c(C3CCN(C(=O)Nc4cnc(N5CCCC5)nc4)CC3)ncnc2c1 [Compound 84, 4-{7-[2-(2-Oxo-pyrrolidin-1-yl)-ethoxy]-quinazolin-4-yl}-piperidine-1-carboxylic acid (2-pyrrolidin-1-yl-pyrimidin-5-yl)-amide]	0.8 µM
O=C(Nc1ccc(N2CCOCC2)cc1)N1CCC(c2ncnc3cc(N4CCC[C@H]4CO)ccc23)CC1 [Compound 139, (S)-4-[7-(2-Hydroxymethyl-pyrrolidin-1-yl)-quinazolin-4-yl]-piperidine-1-carboxylic acid (4-morpholin-4-yl-phenyl)-amide]	33.8 µM
O=C(Nc1ccc(N2CCOCC2)cc1)N1CCC(c2ncnc3cc(N4CC[C@@H](O)C4)ccc23)CC1 [Compound 126, (R)-4-[7-(3-Hydroxy-pyrrolidin-1-yl)-quinazolin-4-yl]-piperidine-1-carboxylic acid (4-morpholin-4-yl-phenyl)-amide]	10.2 µM
CN1CCN(c2ccc3c(C4CCN(C(=O)Nc5ccc(N6CCOCC6)cc5)CC4)ncnc3c2)CC1 [Compound 135, 4-[7-(4-Methyl-piperazin-1-yl)-quinazolin-4-yl]-piperidine-1-carboxylic acid (4-morpholin-4-yl-phenyl)-amide]	> 42 µM
COc1cc2ncnc(C3CCN(C(=O)Nc4ccc(C5=CCNCC5)cc4)CC3)c2cc1OC [Compound 62, 4-(6,7-Dimethoxy-quinazolin-4-yl)-piperidine-1-carboxylic acid [4-(1,2,3,6-tetrahydro-pyridin-4-yl)-phenyl]-amide]	> 10 µM
CC(C)Oc1ccc(NC(=O)N2CCC(c3ccnc4ccccc34)CC2)cc1 [Compound 6, 4-Quinolin-4-yl-piperidine-1-carboxylic acid (4-isopropoxy-phenyl)-amide]	0.8 µM
CN(C)[C@@H]1CCN(c2ccc3c(C4CCN(C(=O)Nc5ccc(N6CCOCC6)cc5)CC4)ncnc3c2)C1 [Compound 150, (R)-4-[7-(3-Dimethylamino-pyrrolidin-1-yl)-quinazolin-4-yl]-piperidine-1-carboxylic acid (4-morpholin-4-yl-phenyl)-amide]	> 42 µM
CN(C)[C@@H]1CCN(c2ccc3c(C4CCN(C(=O)Nc5ccc(N6CCCC6)cc5)CC4)ncnc3c2)C1 [Compound 149, (R)-4-[7-(3-Dimethylamino-pyrrolidin-1-yl)-quinazolin-4-yl]-piperidine-1-carboxylic acid (4-pyrrolidin-1-yl-phenyl)-amide]	7.26 µM
O=C(Nc1ccc(N2CCOCC2)cc1)N1CCC(c2ncnc3cc(N4CC[C@H](O)C4)ccc23)CC1 [Compound 128, 4-[7-(3-Hydroxy-pyrrolidin-1-yl)-quinazolin-4-yl]-piperidine-1-carboxylic acid (4-morpholin-4-yl-phenyl)-amide]	> 20 µM
COc1cc2ncnc(C3CCN(C(=O)Nc4ccc(Oc5ccccc5)cc4)CC3)c2cc1OC [Compound 47, 4-(6,7-Dimethoxy-quinazolin-4-yl)-piperidine-1-carboxylic acid (4-phenoxy-phenyl)-amide]	4 µM
COc1cc2ncnc(C3CCN(C(=O)Nc4ccc(C(F)(F)F)cc4)CC3)c2cc1OC [Compound 46, 4-(6,7-Dimethoxy-quinazolin-4-yl)-piperidine-1-carboxylic acid (4-trifluoromethyl-phenyl)-amide]	18.3 µM
CNC(=O)C1CCN(c2ccc3c(C4CCN(C(=O)Nc5ccc(N6CCCC6)cc5)CC4)ncnc3c2)CC1 [Compound 155, 4-[7-(4-Carboxylic acid methylamide-piperidin-1-yl)-quinazolin-4-yl]-piperidine-1-carboxylic acid (4-pyrrolidin-1-yl-phenyl)-amide]	11 µM
